Reference: paper PMC11714206, “Massively Parallel Screening of Toll/Interleukin‐1 Receptor (TIR)‐Derived Peptides Reveals Multiple Toll‐Like Receptors (TLRs)‐Targeting Immunomodulatory Peptides” (Advanced Science, 2024)

Biological target: T1, MyD88^TIR (Homo sapiens, UniProt Q99836)
T1 construct: MyD88 (residues 148–296); 6xHis; made in house; host or cells: E. coli BL21 (DE3)
Experiment: T‐Surf phage library (P8 and P3) selection against MyD88^TIR, four rounds, NGS read counts
Format: binding
Details: for P3_MyD88 Rank (after) / P3_MyD88 Rank (before): P3 library; for P8_MyD88 Rank (after) / P8_MyD88 Rank (before): P8 library; for Population: 4th round of selection against MyD88 TIR, share of NGS reads
Description: T‐Surf libraries were screened against the immobilized TIR domains of two major human TLR adaptor proteins, MAL^TIR and MyD88^TIR, allowing cross‐species selection of TIR‐binding motifs with 190 946 TIR‐derived peptides in a single binding assay (Scheme 1). Enriched phage pools from the fourth round of selection were analyzed using NGS after barcoding the peptide‐coding regions of the phage pools.
Phage display screening was performed by coating two wells of a 96‐well plate (Maxisorp, Thermo Fisher Scientific) with 100 µL of 5 µg mL^−1 TIR domains overnight; then, the coated wells were blocked with 200 µL of blocking buffer (0.2% BSA in PBS) and set aside for 1 h at 4 °C with gentle shaking. Next, 100 µL of the phage library was added to the wells and incubated for 1 h at room temperature (RT; 20 – 22 °C) with gentle shaking. The plate was washed four times with PBS containing 0.5% Tween‐20; the bound phages were eluted by adding 100 µL of 100 mM HCl to each well. The elute was neutralized with 10 µL of 1.0 M Tris‐HCl (pH 11.0). E. coli TG1 cells were grown to the log phase (A600 = ≈0.6), and 1 mL of the culture was incubated with 100 µL of the eluted phages for 30 min at 37 °C, with shaking at 200 rpm. Next, 1 µL of M13KO7 helper phages was added, followed by incubation for 45 min at 37 °C, with shaking. Subsequently, the cells were transferred to 25 mL of 2× yeast extract tryptone/carbenicillin/kanamycin medium and incubated overnight at 37 °C with shaking at 200 rpm. The amplified phages were precipitated with 20% PEG‐8000/2.5 M NaCl to be used for the next round of selection.
The naïve T‐Surf libraries in P8 and P3 and the enriched phage pools after four rounds were barcoded for NGS as previously described.^[ [59] ^] Briefly, 5 µL of the phage pool was used as a template for 20 cycles of a 50 µL PCR reaction using […] each of forward and reverse barcoded primers and PrimeSTAR Max DNA Polymerase. The PCR products were purified using Expin Gel SV (GeneAll). The NGS samples were quantified using qPCR, following the qPCR Quantification Protocol Guide (KAPA Library Quantification kits for Illumina Sequencing Platform), and qualified using the TapeStation High Sensitivity D1000 ScreenTape (Agilent Technologies). The indexed libraries were further sequenced by Macrogen (Seoul, Republic of Korea) using the NovaSeq platform (Illumina) with 100 bp paired‐end reads. The reads were demultiplexed by barcodes and filtered for an average Phred quality score of at least 30, followed by trimming the flanking consensus sequences using Cutadapt (version 2.3). Peptide sequence populations were analyzed according to the read counts.

[1] = selection against MyD88, rank by count after grouping
[2] = selection against MyD88, rank by count before grouping
[3] = P3_MyD88: rank by count after grouping
[4] = P3_MyD88: rank by count before grouping
[5] = selection against MyD88 TIR, rank by count after grouping
[6] = selection against MyD88 TIR, rank by count before grouping
[7] = 4R selection against MyD88, rank after grouping
[8] = 4R selection against MyD88, rank before grouping
[9] = selection against MyD88, rank after grouping
[10] = selection against MyD88, rank before grouping
[11] = P8_MyD88: rank by count after grouping
[12] = P8_MyD88: rank by count before grouping
[13] = P8_MyD88 pool: P8 T-Surf phage library
[14] = P8_MyD88: rank by NGS read count after grouping
[15] = P8_MyD88: rank by NGS read count before grouping

T1 sequence (Q99836 148-296): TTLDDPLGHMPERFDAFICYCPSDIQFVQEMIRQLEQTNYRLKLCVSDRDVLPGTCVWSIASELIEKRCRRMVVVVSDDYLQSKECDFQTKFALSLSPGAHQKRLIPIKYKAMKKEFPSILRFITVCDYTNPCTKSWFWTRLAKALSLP

Question: For YAFTCHLHRYLVQRCV, which “P3_MyD88 Rank (after)” value [1] is on record?
Answer: 692

Question: And the “P3_MyD88 Rank (before)” value [2]?
Answer: 1481

Question: With LKVENWRQAMEKAGKL as the sequence, how does the “Rank (after)” value [3] read?
Answer: 176

Question: What about the “Rank (before)” value [4] of the same sequence?
Answer: 2525

Question: Which “P8_MyD88 Rank (after)” value [5] does the source give for DPQDLDWFYARLVRLF here?
Answer: 270

Question: What about the “P8_MyD88 Rank (before)” value [6] of the same sequence?
Answer: 2751

Question: How did the “P8_MyD88 Rank (after)” value [7] turn out when LGYHGLIGSILWALK was run?
Answer: 618

Question: And the “P8_MyD88 Rank (before)” value [8]?
Answer: 3317

Question: YRKWGYLRIWDRWRFA was tested. Which “Rank (after)” value [3] did it give?
Answer: 411

Question: What about the “Rank (before)” value [4] of the same sequence?
Answer: 1613

Question: How did the Population (P3_MyD88 pool: P3 T-Surf phage library) turn out when SSFREGLWRLLELRKK was run?
Answer: 0.0032%

Question: What does the source list for LGYHWIDWEYFVGIEDPIT?
Answer: P8_MyD88 Rank (after) [7]: 660; P8_MyD88 Rank (before) [8]: 3261

Question: DPQDLDLFYERLVRLF was tested. Which “P8_MyD88 Rank (after)” value [5] did it give?
Answer: 261

Question: What about the “P8_MyD88 Rank (before)” value [6] of the same sequence?
Answer: 2737

Question: Which results are given for LKVEAGVRRWKKRAN?
Answer: Rank (after) [3]: 114; Rank (before) [4]: 1074

Question: SSVRGGRWGLVELGKK was tested. Which “Rank (after)” value [3] did it give?
Answer: 455

Question: What about the “Rank (before)” value [4] of the same sequence?
Answer: 3269

Question: What does the source list for YLLLSEFHSELALRPL?
Answer: P8_MyD88 Rank (after) [7]: 637; P8_MyD88 Rank (before) [8]: 2016

Question: How did the “P8_MyD88 Rank (after)” value [9] turn out when YAASPRLFGEPVKIVG was run?
Answer: 497

Question: What about the “P8_MyD88 Rank (before)” value [10] of the same sequence?
Answer: 1755

Question: How did the “Rank (after)” value [11] turn out when SAAYGDYWVRQIRMIE was run?
Answer: 469

Question: What about the “Rank (before)” value [12] of the same sequence?
Answer: 3707

Question: How did the Population [13] turn out when YLLLSVFQTIFARRTD was run?
Answer: 0.00771%

Question: YASSSWALEELVKIMEAM was tested. Which “Rank (after)” value [11] did it give?
Answer: 454

Question: And the “Rank (before)” value [12]?
Answer: 1898

Question: For KEPENYRFALHERDFP, which “P3_MyD88 Rank (after)” value [7] is on record?
Answer: 662

Question: And the “P3_MyD88 Rank (before)” value [8]?
Answer: 3685

Question: What does the source list for DPQDLDWFYERLVAC?
Answer: Rank (after) [14]: 1005; Rank (before) [15]: 2779

Question: For YTALTNSGCHTFRVND, which “P3_MyD88 Rank (after)” value [1] is on record?
Answer: 689

Question: What about the “P3_MyD88 Rank (before)” value [2] of the same sequence?
Answer: 1657

Question: NEWVNAWTSKANRRVG was tested. Which “P3_MyD88 Rank (after)” value [7] did it give?
Answer: 602

Question: And the “P3_MyD88 Rank (before)” value [8]?
Answer: 3395

Question: How did the “P3_MyD88 Rank (after)” value [9] turn out when KNLFNLLGSKDIRALM was run?
Answer: 542

Question: What about the “P3_MyD88 Rank (before)” value [10] of the same sequence?
Answer: 3781

Question: How did the “P3_MyD88 Rank (after)” value [9] turn out when LVAHEISKKRKIFATS was run?
Answer: 511

Question: And the “P3_MyD88 Rank (before)” value [10]?
Answer: 2306

Question: Which Population [13] does the source give for WALDELLKILDAKETM here?
Answer: 0.0116%

Question: Which results are given for LGYHWRDWEYFVGLED?
Answer: P8_MyD88 Rank (after) [5]: 280; P8_MyD88 Rank (before) [6]: 3302

Question: How did the “P3_MyD88 Rank (after)” value [9] turn out when SLRKNVVSNLLEEFKR was run?
Answer: 524

Question: What about the “P3_MyD88 Rank (before)” value [10] of the same sequence?
Answer: 3079

Question: What does the source list for LSEESWRQALEKAGKL?
Answer: P3_MyD88 Rank (after) [5]: 202; P3_MyD88 Rank (before) [6]: 2375

Question: What does the source list for FHGDELRDNFIRYLVW?
Answer: P8_MyD88 Rank (after) [5]: 252; P8_MyD88 Rank (before) [6]: 421

Question: For KLDSAMIIKVQRWREA, which “P3_MyD88 Rank (after)” value [7] is on record?
Answer: 618

Question: What about the “P3_MyD88 Rank (before)” value [8] of the same sequence?
Answer: 3698

Question: For AHDELWVLRYLLPTLE, which “P8_MyD88 Rank (after)” value [5] is on record?
Answer: 205

Question: And the “P8_MyD88 Rank (before)” value [6]?
Answer: 304

Question: What does the source list for LGYHWVDWGCFVGIAD?
Answer: Rank (after) [14]: 958; Rank (before) [15]: 3232

Question: How did the “Rank (after)” value [11] turn out when DYASSTWWLRELLYA was run?
Answer: 434

Question: What about the “Rank (before)” value [12] of the same sequence?
Answer: 1060

Question: How did the “Rank (after)” value [14] turn out when YASNDDNDYYWVTHVRLRHL was run?
Answer: 1023

Question: And the “Rank (before)” value [15]?
Answer: 1909

Question: Which results are given for NYGSSSWALEELAHIIE?
Answer: P8_MyD88 Rank (after) [7]: 665; P8_MyD88 Rank (before) [8]: 3831

Question: Which results are given for SSFREGPWRLLELSKN?
Answer: P3_MyD88 Rank (after) [7]: 609; P3_MyD88 Rank (before) [8]: 3217

Question: DPQERGCQYQRLVGML was tested. Which “Rank (after)” value [14] did it give?
Answer: 902

Question: And the “Rank (before)” value [15]?
Answer: 3019

Question: Which results are given for YTALTNSGFSEENLF?
Answer: P3_MyD88 Rank (after) [7]: 668; P3_MyD88 Rank (before) [8]: 1683

Question: What does the source list for DPKALQWFYERLVSLI?
Answer: P8_MyD88 Rank (after) [9]: 562; P8_MyD88 Rank (before) [10]: 3042

Question: With YTARTNSGFHTFLDND as the sequence, how does the “P3_MyD88 Rank (after)” value [5] read?
Answer: 225

Question: And the “P3_MyD88 Rank (before)” value [6]?
Answer: 1708

Question: WALDELLRILY was tested. Which Population [13] did it give?
Answer: 0.01%

Question: How did the “Rank (after)” value [3] turn out when EHHLDLPRGKAIKPAILG was run?
Answer: 152

Question: And the “Rank (before)” value [4]?
Answer: 2117

Question: With QYSDTLLEHTSKFPA as the sequence, how does the “P3_MyD88 Rank (after)” value [9] read?
Answer: 492

Question: What about the “P3_MyD88 Rank (before)” value [10] of the same sequence?
Answer: 2837

Question: How did the “Rank (after)” value [11] turn out when DWAWDYLLPNLEGSAG was run?
Answer: 432

Question: And the “Rank (before)” value [12]?
Answer: 2483

Question: Which “P3_MyD88 Rank (after)” value [5] does the source give for LNVESWRKALEKAGKL here?
Answer: 230

Question: And the “P3_MyD88 Rank (before)” value [6]?
Answer: 2403
